Laboratory results reported in patent publication US9057727B2, “Screening methods using G-protein coupled receptors and related compositions” (The General Hospital Corporation, priority 2007, dated 2015).
“Also recorded” adds a separate entry of the source. Square brackets hold non-standard residues; d marks the D form. Peptide text beside a SMILES is read from it. Nle = CCCC[C@H](N)C(=O)O

Experiments:
[1] = target: T1, human PTHR, G protein-uncoupled conformation (R^0) (Homo sapiens, UniProt Q03431); experiment: Competition binding to R0 conformation of hPTHR (COS-7 membranes, GTPγS, 125I-PTH(1-34) tracer); details: Table 5, fold weaker affinity for R0 than RG
T1 construct: expressed in transfected cells; host or cells: COS-7, transient (Fugene-6)
T1 sequence (Q03431 27-593): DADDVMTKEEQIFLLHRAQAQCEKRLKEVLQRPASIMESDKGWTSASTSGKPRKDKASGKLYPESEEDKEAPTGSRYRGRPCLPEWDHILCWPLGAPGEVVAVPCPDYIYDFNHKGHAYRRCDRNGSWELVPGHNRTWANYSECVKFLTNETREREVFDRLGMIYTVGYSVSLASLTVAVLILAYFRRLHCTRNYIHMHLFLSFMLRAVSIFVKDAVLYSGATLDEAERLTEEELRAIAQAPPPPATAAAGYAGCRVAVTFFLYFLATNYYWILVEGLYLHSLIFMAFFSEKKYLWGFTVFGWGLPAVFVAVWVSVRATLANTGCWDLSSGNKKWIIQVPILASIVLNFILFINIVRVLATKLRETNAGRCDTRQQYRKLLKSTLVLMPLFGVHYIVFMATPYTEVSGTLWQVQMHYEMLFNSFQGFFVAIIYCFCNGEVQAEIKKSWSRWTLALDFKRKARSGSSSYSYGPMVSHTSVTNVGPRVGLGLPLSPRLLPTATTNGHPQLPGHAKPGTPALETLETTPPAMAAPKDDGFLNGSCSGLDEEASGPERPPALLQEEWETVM
Outline: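 Membranes from hPTHR-transfected COS-7 cells (20-100 μg/mL protein) incubated 90 min with radioligand (~150,000 cpm/ml) and unlabeled ligands, then filtered. Specific binding expressed as % of binding without competitor.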

[2] = tested on: opossum kidney (OK) cell line; experiment: Phosphate uptake inhibition in opossum kidney cells; assay type: cell-based; details: 10 minute exposure, 1×10^−7 M
Description: Data are means (±s.e.m.) of two experiments, each performed in duplicate.
Inhibition of phosphate uptake was assessed using the opossum kidney (OK) cell line, which are derived from the renal proximal tubule.
Cells were treated for 10 minutes at 37° C. with media (vehicle) or media containing a peptide ligand (1×10^−7 M); then (t=0), the cells were then rinsed three times with media and incubated in alone at 37° C. for varying times. At each time point, ^32PO4 was then added to the media, and after five minutes of incubation, the cells were washed, lysed, and the lysate was counted for ^32P beta radioactivity by liquid scintillation counting.

[3] = Bone turnover markers (PINP, osteocalcin, CTX) in mice, daily treatment; assay type: in vivo; details: 5 nmol/kg i.v. daily, days 6 and 13
Description: FIGS. 30A-30F are graphs showing the effects of PTH analogs on plasma bone markers in mice. Mice (C57BL/6, males, 3 months) were intravenously injected daily with either vehicle, rPTH(1-34) (SEQ ID NO:130), M-PTH(1-34) (SEQ ID NO:12), or (EALK)-PTHrP(1-30) (SEQ ID NO:90) (5 nmol/kg; n=7 group) for 14 days. Markers of bone turnover (PINP, CTX and osteocalcin) were assessed by ELISA in blood at day 6 (FIGS. 30A, 30C, and 30E, respectively) and 13 (FIGS. 30B, 30D, and 30F, respectively).
A second set of experiments was performed in which mice received 5 nmol/kg intravenous daily treatment with rPTH(1-34), M-PTH(1-34), or EALK-PTHrP(1-30) for 14 days. Blood samples were taken at days 6 and 13, and markers of bone turnover (PINP, osteocalcin and CTX) were assessed by ELISA.

[4] = Bone structural parameters after two-week daily treatment in mice (Piximus, microCT); assay type: in vivo
Description: FIG. 31 is a set of images showing the effects of two-week daily treatment of R^0 and RG ligands on trabecular and cortical bone structure in mice. Mice (C57BL/6, males, 3 months) were treated (i.v.) with either vehicle, rPTH(1-34) (SEQ ID NO:130), M-PTH(1-34) (SEQ ID NO:12), or E^18,A^22,L^25,K^26 (EALK)PTHrP(1-30) (SEQ ID NO:90) (5 nmol/kg; n=7 group), daily for 14 days, and femurs were analyzed by μCT.
As described above, mice were treated intravenously) with either vehicle, rPTH(1-34), M-PTH(1-34), or EALK-PTHrP(1-30) daily for 14 days.

[5] = Plasma phosphate in mice (20 nmol/kg); assay type: in vivo
Description: (§1) To impair PLC signaling, we replaced alanine at position 1 of M-PTH(1-28) with tryptophan, in accordance with findings of Bisello and colleagues (J Biol Chem 277:38524-30, 2002) showing that such bulky substitutions at this position selectively impair PLC signaling.

NaPi-IIa = NaPi-IIa staining in renal PT cells of injected mice; details: mouse, in vivo
Description: To help elucidate further the signaling mechanisms by which PTH ligands regulate renal phosphate transport, we developed a derivative of M-PTH(1-28) that is defective for PLC/PKC signaling, yet retains potent cAMP/PKA signaling activity. Such a peptide allows for study of the relative roles of the PKA and PKC signaling pathways in modulating the function and surface expression of the Pi transporters NaPi-IIa and NaPi-IIc in proximal tubule (PT) cells. The analog M-PTH(1-28) (M=Ala^1,Aib^3,Gln^10, Har^11,Trp^14,Arg^19), a potent agonist for cAMP and IP3 signaling pathways, induces, when injected into mice, prolonged hypophosphatemic and hypercalcemic effects.
as §1

NaPi-IIc = NaPi-IIc immunostaining in renal PT cells of injected mice; assay type: in vivo; details: interval 4 to 6 h
Description: as §1

[6] = Serum and urinary calcium and phosphate in TPTX rats; assay type: in vivo; details: single i.v. 1.25 nmol/kg
Description: Five-week-old male Crl:CD(SD) rats were obtained from Charles River Laboratories Japan, Inc. (Kanagawa, Japan) and acclimated for 1 week under standard laboratory conditions at 20-26° C. and 35-75% humidity. The rats received free access to tap water and standard rodent chow (CE-2) containing 1.1% calcium, 1.0% phosphate and 250 IU/100 g of vitamin D3 (Clea Japan, Inc., Shizuoka, Japan).
Thyroparathyroidectomy (TPTX) was performed on six-week-old rats. TPTX rats were selected for use based on serum ionized calcium (iCa) levels (<1.0 mM) in samples taken from tail vein bleeding at 24 hours or […] after the operation using the electrode method. The TPTX rats were divided into six groups of five animals based on iCa levels at 48 hours after the operation. TPTX-vehicle group intravenously received the vehicle alone (10 mM acetic acid solution) at a dose of 1 ml/kg body weight administered to the tail vein.
Blood was obtained from the tail vein for detecting iCa at 1, 2, 4, 6, and 24 hours after each injection. Ionized calcium levels were determined by the electrode method using an autoanalyzer (M-634, Chiba Corning Diagnostics Co. Ltd., Tokyo, Japan).
We also studied the effects of the M-PTH(1-14)/PTHrP(15-36) hybrid peptide (SP-PTH) on serum and urinary calcium and phosphate.

hPTHR [7] = target: T2, hPTHR (Homo sapiens, UniProt Q03431); experiment: Delayed cAMP response after ligand wash-out in HKRK-B7 cells; assay type: cell-based; design: expressed in transfected cells
T2 sequence (Q03431 27-593): T1 sequence (Q03431 27-593)
Description: The cells were pre-treated for 10 minutes with either buffer alone (basal) or buffer containing ligand (100 nM); at t=0, the cells were washed, incubated in buffer for the times indicated (wash-out phase), treated with 3-isobutyl-1-methylxanthine (IBMX) for five minutes, and then assessed for intracellular cAMP. […] Data are means (±s.e.m.) of three experiments, each performed in duplicate. […] Analogs were similarly assessed in HKRK-B64 cells (90,000 hPTHRs/cell) at a single time-point, 60 minutes after ligand wash-out (FIG. 5B). For each peptide, the data are expressed as a percentile of the maximum cAMP responses (indicated in side panel) produced in cells treated concomitantly with that ligand and IBMX for 10 minutes and omitting the wash-out phase. […] Data are means (±s.e.m) of four experiments, each performed in triplicate.
Cells were thus treated with a ligand for ten minutes, washed to remove unbound ligand. At various times after washing, IBMX was applied for five minutes, and the resulting intracellular cAMP was measured. […]
Following treatment of cells with a ligand, the intracellular cAMP levels were measured by radioimmuno assay, as described (Shimizu et al., J. Biol. Chem. 276:49003-49012 (2001)). The capacities of ligands to produce a delayed cAMP response in cells after a brief exposure to the ligand was assessed as follows. […]

hPTHR [8] = target: T2, hPTHR; experiment: Delayed cAMP response after ligand wash-out in HKRK-B64 cells; assay type: cell-based; design: expressed in transfected cells; details: HKRK-B64, 60 minutes after wash-out; read-out: cAMP response after wash-out, % of maximum response
Description: The cells were pre-treated for 10 minutes with either buffer alone (basal) or buffer containing ligand (100 nM); at t=0, the cells were washed, incubated in buffer for the times indicated (wash-out phase), treated with 3-isobutyl-1-methylxanthine (IBMX) for five minutes, and then assessed for intracellular cAMP. […] The cAMP level in cells treated with IBMX in the absence of ligand was 2.0±0.3 pmole/well. Data are means (±s.e.m.) of three experiments, each performed in duplicate. […] Analogs were similarly assessed in HKRK-B64 cells (90,000 hPTHRs/cell) at a single time-point, 60 minutes after ligand wash-out (FIG. 5B). For each peptide, the data are expressed as a percentile of the maximum cAMP responses (indicated in side panel) produced in cells treated concomitantly with that ligand and IBMX for 10 minutes and omitting the wash-out phase. […] Data are means (±s.e.m) of four experiments, each performed in triplicate.
The capacity of the ligands to produce sustained (or delayed) cAMP signaling responses was further examined in HKRK-B64 cells, which express the hPTHR at a more physiological level than do HKRK-B7 cells (90,000 per cell vs. 950,000/cell).
The capacities of ligands to produce a delayed cAMP response in cells after a brief exposure to the ligand was assessed as follows. The cells in 24-well plates were rinsed in binding buffer (50 mM Tris-HCl, pH 7.7, 100 mM NaCl, 5 mM KCl, 2 mM CaCl2, 5% heat-inactivated horse serum, 0.5% heat-inactivated fetal bovine serum) and then incubated in binding buffer with or without a peptide ligand (1×10^−7 or 3×10^−7 M) for 10 minutes at room temperature; the buffer was then removed, the cells were washed three times with binding buffer, incubated further in binding buffer for varying times (1 to 120 minutes); the buffer was then replaced by binding buffer containing IBMX (2 mM), and after an additional five minute incubation, the intracellular cAMP was quantified.

hPTHR [9] = target: T2, hPTHR; experiment: cAMP dose-response in HKRK-B64 cells; assay type: cell-based; design: expressed in transfected cells
Description: Cells were treated for 30 minutes at room temperature with varying concentrations of ligand in the presence of IBMX. […] Data are means (±s.e.m.) of four (FIG. 7A) or five (FIG. 7B) experiments, each performed in duplicate.
Following treatment of cells with a ligand, the intracellular cAMP levels were measured by radioimmuno assay, as described (Shimizu et al., J. Biol. Chem. 276:49003-49012 (2001)).

hPTHR [10] = target: T2, hPTHR; experiment: Inositol phosphate production in COS-7/hPTHR cells; assay type: cell-based; design: expressed in transfected cells; host or cells: COS-7, transient (Fugene-6); details: basal 330 ± 8 cpm/well not subtracted
Description: The capacity of the ligands to stimulate the production of inositol phosphates (IPs) was assessed in COS-7 cells transiently transfected with the hPTHR (FIG. 7B). Cells were treated for 30 minutes at room temperature with varying concentrations of ligand. […] Data are means (±s.e.m.) of four (FIG. 7A) or five (FIG. 7B) experiments, each performed in duplicate.
The stimulation of intracellular inositol phosphates (IPs) was measured in transiently transfected COS-7 cells that were pre-labeled (16 hours) with ^3H-myo-D-inositol (2 μCi/ml). Cells were treated with ligand in DMEM containing fetal bovine serum (10%) and LiCl (30 mM) for 30 minutes; cells were lysed with ice cold trichloro acetic acid (5%) and IPs were extracted from the acid-lysates by ion-exchange filtration, as described (Shimizu et al., J. Biol. Chem. 276:49003-49012 (2001)).

[11] = Piximus, mice, 5 nmol/kg i.v. daily 14 days

Compound: CC[C@H](C)[C@H](NC(=O)[C@H](CCC(=O)O)NC(=O)[C@H](CO)NC(=O)[C@@H](NC(=O)[C@H](C)N)C(C)C)C(=O)N[C@@H](CCC(N)=O)C(=O)N[C@@H](CC(C)C)C(=O)N[C@@H](CCSC)C(=O)N[C@@H](Cc1c[nH]cn1)C(=O)N[C@@H](CC(N)=O)C(=O)N[C@@H](CC(C)C)C(=O)NCC(=O)N[C@@H](CCCCN)C(=O)N[C@@H](Cc1c[nH]cn1)C(=O)N[C@@H](CC(C)C)C(=O)N[C@@H](C)C(=O)N[C@@H](CO)C(=O)N[C@H](C(=O)N[C@@H](CCC(=O)O)C(=O)N[C@@H](CCCNC(=N)N)C(=O)N[C@@H](CCSC)C(=O)N[C@@H](CCC(N)=O)C(=O)N[C@@H](Cc1c[nH]c2ccccc12)C(=O)N[C@@H](CC(C)C)C(=O)N[C@@H](CCCNC(=N)N)C(=O)N[C@@H](CCCCN)C(=O)N[C@@H](CCCCN)C(=O)N[C@@H](CC(C)C)C(=O)N[C@@H](CCC(N)=O)C(=O)N[C@@H](CC(=O)O)C(=O)N[C@H](C(=O)N[C@@H](Cc1c[nH]cn1)C(=O)N[C@@H](CC(N)=O)C(=O)N[C@@H](Cc1ccccc1)C(N)=O)C(C)C)C(C)C [PTH(1-34), reference compound]
- R0:RG [1]: five
- duration of phosphate uptake inhibition, in words [2]: much shorter duration of phosphate uptake inhibition
- effect on bone turnover markers, in words [3]: only minor effects on bone markers
- Lumbar Spine BMD [4, 11]: 0.0464 ± 0.0002 g/cm^2
- Total Femur BMD [4, 11]: 0.0615 ± 0.0003 g/cm^2
- Conn-Dens. ([4]; microCT distal femur): 116 ± 8 1/mm^3
- Cort Th. ([4]; microCT distal femur): 229 ± 11 μm
- Tb · N ([4]; microCT distal femur): 4.02 ± 0.14 1/mm
- Tb · Th ([4]; microCT distal femur): 57.5 ± 1.4 μm
- TbSp ([4]; microCT distal femur): 246 ± 10 μm
- TrabecularBV/TV ([4]; microCT distal femur): 17.4 ± 1.2%
- BA ([4]; microCT mid femur): 0.839 ± 0.032 mm^2
- BA/TA ([4]; microCT mid femur): 38.7 ± 0.7%
- Cort Th. ([4]; microCT mid femur): 172 ± 5 μm
- MA ([4]; microCT mid femur): 1.33 ± 0.02 mm^2
- TA ([4]; microCT mid femur): 2.17 ± 0.05 mm^2
- time of maximal suppression of plasma phosphate [5]: 2 h
- time of recovery of plasma phosphate to vehicle control levels [5]: 4 h
- apical and cytoplasmic NaPi-IIa staining, in words (NaPi-IIa): returned to vehicle control levels at 6 h
- NaPi-IIc immunostaining, in words (NaPi-IIc): unchanged
- serum calcium (sCa) and serum phosphorus (sPi), in words [6]: transiently increased serum calcium (sCa) and decreased serum phosphorus (sPi) levels at 1 hr, but not to the normal range
- urinary calcium 0-6 hours, in words [6]: did not change
- urinary phosphate 0-6 hours, in words [6]: did not change
- time course of cAMP responses after wash-out compared with other ligands, in words (hPTHR [7]): not different from those induced by PTHrP(1-36); also recorded: nearly identical to those produced by Ile^5-PTHrP(1-36)
- Emax (hPTHR [8]): 47%

Compound: CCCC[C@H](NC(=O)[C@H](CC(C)C)NC(=O)[C@H](CCC(N)=O)NC(=O)[C@H](Cc1c[nH]cn1)NC(=O)[C@H](CCC(=O)O)NC(=O)[C@H](CO)NC(=O)[C@@H](NC(=O)[C@H](C)N)C(C)C)C(=O)N[C@@H](Cc1c[nH]cn1)C(=O)N[C@@H](CC(N)=O)C(=O)N[C@@H](CC(C)C)C(=O)NCC(=O)N[C@@H](CCCCN)C(=O)N[C@@H](Cc1c[nH]cn1)C(=O)N[C@@H](CC(C)C)C(=O)N[C@@H](C)C(=O)N[C@@H](CO)C(=O)N[C@H](C(=O)N[C@@H](CCC(=O)O)C(=O)N[C@@H](CCCNC(=N)N)C(=O)N[C@@H](CCCC)C(=O)N[C@@H](CCC(N)=O)C(=O)N[C@@H](Cc1c[nH]c2ccccc12)C(=O)N[C@@H](CC(C)C)C(=O)N[C@@H](CCCNC(=N)N)C(=O)N[C@@H](CCCCN)C(=O)N[C@@H](CCCCN)C(=O)N[C@@H](CC(C)C)C(=O)N[C@@H](CCC(N)=O)C(=O)N[C@@H](CC(=O)O)C(=O)N[C@H](C(=O)N[C@@H](Cc1c[nH]cn1)C(=O)N[C@@H](CC(N)=O)C(=O)N[C@@H](Cc1ccc(O)cc1)C(N)=O)C(C)C)C(C)C [[His^5,Nle^8,21,Tyr^34]rPTH(1-34)NH2] (H-AVSEHQL[Nle]HNLGKHLASVER[Nle]QWLRKKLQDVHNY-NH2; N-terminus assumed)
- R0:RG [1]: 753
- R0:RG ([1]; listed as His^5-PTH(1-34)): 750
- Emax (hPTHR [8]): 34%
- EC50 (hPTHR [9]; 30 min, room temperature, IBMX): 2.7 nM
- cAMP in HKRK-B64 cells Emax (hPTHR [9]; basal 5.2 ± 0.9 pmole/well not subtracted): 59 ± 12 picomole/well
- IP in COS-7/hPTHR cells Emax (hPTHR [10]): 2,231 ± 229 cpm/well
